From publication PMC10803289, “Transport and inhibition mechanism of the human SGLT2–MAP17 glucose transporter” (Nature Structural & Molecular Biology, 2023)
Residue numbers refer to the chain shown, from its start. Where “and” joins values, the source holds several entries; their conditions need not be identical. Equal entries are not always repeated. Where two headings read alike, the source gives them in different places.

Columns and labels:
Assay type in all cases: cell-based
WT hSGLT2 = molecular target: T1, WT hSGLT2 (Homo sapiens, UniProt P31639); experiment: α-MG uptake in hSGLT2-transfected HEK293 cells, WT
T1 construct: expressed in transfected cells; host or cells: HEK293 cells (ECACC 85120602)
T1 sequence (P31639 1-672): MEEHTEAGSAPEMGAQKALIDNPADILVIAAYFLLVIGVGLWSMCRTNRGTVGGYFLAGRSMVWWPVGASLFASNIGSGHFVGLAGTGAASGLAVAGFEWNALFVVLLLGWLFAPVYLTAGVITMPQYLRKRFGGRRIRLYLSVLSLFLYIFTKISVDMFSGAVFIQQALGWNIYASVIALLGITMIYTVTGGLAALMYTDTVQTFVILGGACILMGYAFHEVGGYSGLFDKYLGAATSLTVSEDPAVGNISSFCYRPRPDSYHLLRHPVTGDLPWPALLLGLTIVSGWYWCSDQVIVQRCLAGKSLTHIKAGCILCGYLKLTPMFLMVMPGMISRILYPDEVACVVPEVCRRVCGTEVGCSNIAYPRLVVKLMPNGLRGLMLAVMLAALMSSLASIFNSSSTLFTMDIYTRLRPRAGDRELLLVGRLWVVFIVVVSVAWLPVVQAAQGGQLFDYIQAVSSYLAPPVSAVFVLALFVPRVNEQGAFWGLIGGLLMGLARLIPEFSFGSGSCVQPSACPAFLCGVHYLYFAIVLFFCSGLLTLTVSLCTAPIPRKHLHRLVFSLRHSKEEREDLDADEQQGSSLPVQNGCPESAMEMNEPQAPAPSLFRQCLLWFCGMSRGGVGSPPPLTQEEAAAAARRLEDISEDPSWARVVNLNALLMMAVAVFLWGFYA
T1 sequence (Q13113 1-114 partner): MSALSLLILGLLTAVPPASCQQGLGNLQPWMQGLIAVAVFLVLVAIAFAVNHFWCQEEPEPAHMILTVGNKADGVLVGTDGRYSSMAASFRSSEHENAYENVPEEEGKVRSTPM
Protocol: (§1) HEK293 cells (ECACC 85120602) were maintained in Dulbecco’s modified Eagle medium (Gibco) supplemented with 10% fetal bovine serum (Thermo Scientific), 2 mM L-glutamine, 100 U ml^−1 benzylpenicillin and 100 µg ml^−1 streptomycin at 37 °C in a humidified atmosphere (5% CO2 in air). HEK293 cells were seeded at 1.0 × 10^5 cells per well in poly-L-lysine coated 24-well plates. The cells in each well were transiently transfected with 0.25 µg hMAP17 plasmid and 0.50 µg hSGLT2 plasmid using Lipofectamine 2000 (Life Technologies) and cultured for 48 h. […] After preincubation, uptake was initiated by replacing the preincubation buffer with extracellular fluid buffer containing 500 μM α-MG in the absence or presence of inhibitors. Uptake was completed by removing the uptake buffer and washing with ice-cold buffer three times, followed by solubilization in 1 N NaOH at room temperature.
(§2) Cell lysates were deproteinized by adding acetonitrile containing candesartan as the internal standard. The α-MG concentration was quantified via liquid chromatography–tandem mass spectrometry (LC–MS/MS) using the internal standard method.
(§3) Cellular protein content was determined using a bicinchoninic acid protein assay kit (Thermo Fisher Scientific). The uptake of α-MG was expressed as the ratio of concentration in the cells (in pmol per mg protein) to concentration in the medium (in pmol μl^−1); this is known as the cell-to-medium ratio (in μl per mg protein).
(§4) In the inhibition study, the cell-to-medium ratio of cells transfected with the empty vector was used as the background. The specific α-MG uptake was calculated by subtracting this background from the total cell-to-medium ratio and normalized to the uptake achieved without the inhibitor. IC50 was calculated via nonlinear regression using GraphPad Prism 8.4.3.
(§5) The concentrations of the extract solution from the filter plate and of the cell lysate were quantified using a tandem mass spectrometry QTRAP6500 System (SCIEX) coupled with an ACQUITY UPLC system (Waters) using the internal standard method. Mobile phases A and B used 10 mM of ammonium bicarbonate and acetonitrile, respectively.

hSGLT2 F98A = molecular target: T2, hSGLT2 F98A (Homo sapiens, UniProt P31639, F98A); experiment: α-MG uptake in HEK293 cells, F98A mutant; design: expressed in transfected cells
T2 sequence (P31639 1-672 F98A): T1 sequence (P31639 1-672) with F98A
T2 sequence (Q13113 1-114 partner): T1 sequence (Q13113 1-114 partner)
Text: hSGLT2 complementary DNA and human MAP17 cDNA were synthesized and codon-optimized for expression in human cell lines. Both cDNAs were cloned into the pcDNA3.4 vector. The hSGLT2 sequence was fused with an N-terminal signal sequence from human trypsinogen 1, a His10 tag, and sfGFP, followed by a human rhinovirus 3C protease (HRV3C protease) recognition site. Point mutations were introduced into this construct using site-directed mutagenesis. These plasmids were utilized for all experimental procedures conducted in this study.
as §1, §2, §3, §4, §5

hSGLT2 S74A = molecular target: T3, hSGLT2 S74A (Homo sapiens, UniProt P31639, S74A)
T3 construct: expressed in transfected cells; host or cells: Expi293 cells, crude membrane fraction
T3 sequence (P31639 whole entry S74A, one chain of several): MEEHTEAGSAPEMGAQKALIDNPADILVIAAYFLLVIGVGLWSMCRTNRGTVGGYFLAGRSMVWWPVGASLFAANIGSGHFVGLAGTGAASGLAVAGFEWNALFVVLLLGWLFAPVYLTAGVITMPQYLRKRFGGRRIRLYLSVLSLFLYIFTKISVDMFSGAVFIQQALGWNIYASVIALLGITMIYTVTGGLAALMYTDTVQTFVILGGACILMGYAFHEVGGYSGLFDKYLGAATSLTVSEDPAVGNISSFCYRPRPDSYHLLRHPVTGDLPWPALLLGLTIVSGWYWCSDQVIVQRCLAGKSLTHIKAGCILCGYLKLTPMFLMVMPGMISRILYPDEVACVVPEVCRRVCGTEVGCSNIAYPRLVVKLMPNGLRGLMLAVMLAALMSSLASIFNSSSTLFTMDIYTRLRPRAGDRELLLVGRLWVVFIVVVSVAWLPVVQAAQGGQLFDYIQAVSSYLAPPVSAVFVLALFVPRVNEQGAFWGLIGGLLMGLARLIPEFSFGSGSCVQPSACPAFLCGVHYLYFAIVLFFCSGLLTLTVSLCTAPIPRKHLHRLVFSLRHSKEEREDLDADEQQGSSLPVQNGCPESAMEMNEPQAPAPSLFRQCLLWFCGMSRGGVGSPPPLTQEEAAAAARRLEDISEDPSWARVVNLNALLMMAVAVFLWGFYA

O=C(CCc1ccc(O)cc1)c1c(O)cc(O)cc1O[C@@H]1O[C@H](CO)[C@@H](O)[C@H](O)[C@H]1O [Phlorizin]
remaining activity at 0.0003 µM (WT hSGLT2; HEK293, Phlorizin 0.3 nM, WT, read-out: α-MG uptake (% of control)): 103%
remaining activity at 0.001 µM (WT hSGLT2; HEK293, Phlorizin 1 nM, WT, read-out: α-MG uptake (% of control)): 101%
remaining activity at 0.01 µM (WT hSGLT2; HEK293, Phlorizin 10 nM, WT, read-out: α-MG uptake (% of control)): 81.9%
remaining activity at 0.03 µM (WT hSGLT2; HEK293, Phlorizin 30 nM, WT, read-out: α-MG uptake (% of control)): 53.8%
remaining activity at 0.1 µM (WT hSGLT2; HEK293, Phlorizin 100 nM, WT, read-out: α-MG uptake (% of control)): 36.9%
remaining activity at 0.3 µM (WT hSGLT2; HEK293, Phlorizin 300 nM, WT, read-out: α-MG uptake (% of control)): 18.1%
α-MG uptake (% of control) (WT hSGLT2; Phlorizin 0.3 nM, WT): 107.5 % of control and 105.5 % of control
α-MG uptake (% of control) (WT hSGLT2; Phlorizin 1 nM, WT): 114.0 % of control and 107.4 % of control
α-MG uptake (% of control) (WT hSGLT2; Phlorizin 3 nM, WT): 83.9 % of control and 115.8 % of control and 121.5 % of control
α-MG uptake (% of control) (WT hSGLT2; Phlorizin 10 nM, WT): 71.6 % of control and 84.5 % of control
α-MG uptake (% of control) (WT hSGLT2; Phlorizin 30 nM, WT): 70.4 % of control and 72.9 % of control
α-MG uptake (% of control) (WT hSGLT2; Phlorizin 100 nM, WT): 38.1 % of control and 34.4 % of control
α-MG uptake (% of control) (WT hSGLT2; Phlorizin 300 nM, WT): 15.6 % of control and 11.8 % of control
remaining activity at 0.3 µM (hSGLT2 F98A; HEK293, Phlorizin 300 nM, read-out: α-MG uptake (% of control)): 80.5%
α-MG uptake (% of control) (hSGLT2 F98A; Phlorizin 0.3 nM): 115.8 % of control and 94.2 % of control and 155.8 % of control
α-MG uptake (% of control) (hSGLT2 F98A; Phlorizin 3 nM): 76.0 % of control and 88.8 % of control and 126.1 % of control
α-MG uptake (% of control) (hSGLT2 F98A; Phlorizin 10 nM): 79.6 % of control and 104.3 % of control and 76.0 % of control
α-MG uptake (% of control) (hSGLT2 F98A; Phlorizin 30 nM): 103.1 % of control and 103.4 % of control and 128.4 % of control
α-MG uptake (% of control) (hSGLT2 F98A; Phlorizin 100 nM): 135.2 % of control and 89.8 % of control and 99.6 % of control
α-MG uptake (% of control) (hSGLT2 F98A; Phlorizin 300 nM): 69.6 % of control and 82.5 % of control
α-MG uptake (% of control) (hSGLT2 S74A; Phlorizin 0.3 nM): 98.3 % of control and 109.0 % of control and 132.4 % of control
α-MG uptake (% of control) (hSGLT2 S74A; Phlorizin 1 nM): 94.4 % of control and 116.6 % of control and 114.8 % of control
α-MG uptake (% of control) (hSGLT2 S74A; Phlorizin 3 nM): 99.5 % of control and 109.8 % of control
α-MG uptake (% of control) (hSGLT2 S74A; Phlorizin 10 nM): 92.0 % of control and 68.8 % of control
α-MG uptake (% of control) (hSGLT2 S74A; Phlorizin 30 nM): 76.5 % of control and 90.7 % of control
α-MG uptake (% of control) (hSGLT2 S74A; Phlorizin 100 nM): 51.6 % of control and 68.4 % of control
α-MG uptake (% of control) (hSGLT2 S74A; Phlorizin 300 nM): 32.7 % of control and 25.1 % of control

CO[C@H]1O[C@H](CO)[C@@H](O)[C@H](O)[C@H]1O [α-MG, α-methyl-D-glucopyranoside]
α-MG uptake (WT hSGLT2; Control (no inhibitor), hSGLT2 cells): 23.4464 μL/mg-protein and 18.7820 μL/mg-protein and 14.3913 μL/mg-protein and 26.3540 μL/mg-protein
α-MG uptake (WT hSGLT2; Fig. 3h, WT): 101.43 μL/mg-protein and 101.01 μL/mg-protein and 97.56 μL/mg-protein
α-MG uptake (WT hSGLT2; time course, 500 μM α-MG, 15 min, hSGLT2): 4.1190 μL/mg-protein and 4.1163 μL/mg-protein and 6.4519 μL/mg-protein
α-MG uptake (WT hSGLT2; time course, 500 μM α-MG, 30 min, hSGLT2): 12.1536 μL/mg-protein and 10.6771 μL/mg-protein and 14.5344 μL/mg-protein
α-MG uptake (hSGLT2 F98A; Fig. 3h): 55.68 μL/mg-protein and 75.98 μL/mg-protein and 85.61 μL/mg-protein
α-MG uptake (hSGLT2 S74A; Fig. 3h): 27.75 μL/mg-protein and 30.77 μL/mg-protein and 34.71 μL/mg-protein
